Data taken from publication PMC10643210, “Expanding structural diversity of 5′-aminouridine moiety of sansanmycin via mutational biosynthesis” (Frontiers in Bioengineering and Biotechnology, 2023).
Converted amounts (≈) assume the structure as drawn.

Legend:
M. tuberculosis M6600 = conditions: clinical multidrug-resistant isolate; for MIC M. tuberculosis M6600: Alamar blue, 7H9 broth, triplicate wells
M. tuberculosis M3551 = conditions: clinical multidrug-resistant isolate; for MIC M. tuberculosis M3551: Alamar blue, 7H9 broth, triplicate wells
M. tuberculosis M9483 = conditions: clinical multidrug-resistant isolate; for MIC M. tuberculosis M9483: Alamar blue, 7H9 broth, triplicate wells

## CSCC[C@H](NC(=O)N[C@@H](Cc1c[nH]c2ccccc12)C(=O)O)C(=O)N[C@H](C(=O)NC[C@H]1O[C@@H](n2ccc(=O)[nH]c2=O)C[C@@H]1O)[C@H](C)N(C)C(=O)[C@@H](N)Cc1ccc(O)cc1 [SS-KK-2]
M. tuberculosis M6600
  MIC M. tuberculosis M6600: 64 µg/mL (≈ 73.9 µM)
M. tuberculosis M3551
  MIC M. tuberculosis M3551: 64 µg/mL (≈ 73.9 µM)
M. tuberculosis M9483
  MIC M. tuberculosis M9483: 32 µg/mL (≈ 37 µM)

## CC(=O)NC[C@H]1CN(c2ccc(N3CCOCC3)c(F)c2)C(=O)O1 [LZD, linezolid]
M. tuberculosis M6600
  M. tuberculosis M6600, resistant/sensitive class of control drugs: S (sensitive to LZD, at 2.0 μg/mL)
M. tuberculosis M3551
  M. tuberculosis M3551, resistant/sensitive class of control drugs: S (sensitive to LZD, at 2.0 μg/mL)
M. tuberculosis M9483
  M. tuberculosis M9483, resistant/sensitive class of control drugs: S (sensitive to LZD, at 2.0 μg/mL)

## CSCC[C@H](NC(=O)N[C@@H](Cc1c[nH]c2ccccc12)C(=O)O)C(=O)N[C@H](C(=O)N/C=C1/C[C@@H](O)[C@H](n2ccc(=O)[nH]c2=O)O1)[C@H](C)N(C)C(=O)[C@@H](N)Cc1cccc(O)c1 [SS-A, sansanmycin A]
M. tuberculosis M6600
  MIC M. tuberculosis M6600: 16 µg/mL (≈ 18.5 µM)
M. tuberculosis M3551
  MIC M. tuberculosis M3551: 16 µg/mL (≈ 18.5 µM)
M. tuberculosis M9483
  MIC M. tuberculosis M9483: 16 µg/mL (≈ 18.5 µM)

## NNC(=O)c1ccncc1 [INH, isoniazid]
M. tuberculosis M6600
  M. tuberculosis M6600, resistant/sensitive class of control drugs: R
M. tuberculosis M3551
  M. tuberculosis M3551, resistant/sensitive class of control drugs: R
M. tuberculosis M9483
  M. tuberculosis M9483, resistant/sensitive class of control drugs: R

## CSCC[C@H](NC(=O)N[C@@H](Cc1c[nH]c2ccccc12)C(=O)O)C(=O)N[C@H](C(=O)NC[C@H]1O[C@@H](n2ccc(=O)[nH]c2=O)C[C@@H]1O)[C@H](C)N(C)C(=O)[C@@H](N)Cc1cccc(O)c1 [SS-KK-1]
M. tuberculosis M6600
  MIC M. tuberculosis M6600: >64 µg/mL
M. tuberculosis M3551
  MIC M. tuberculosis M3551: >64 µg/mL
M. tuberculosis M9483
  MIC M. tuberculosis M9483: >64 µg/mL

## CO[C@H]1/C=C/O[C@@]2(C)Oc3c(C)c(O)c4c(O)c(c(/C=N/N5CCN(C)CC5)c(O)c4c3C2=O)NC(=O)/C(C)=C\C=C\[C@H](C)[C@H](O)[C@@H](C)[C@@H](O)[C@@H](C)[C@H](OC(C)=O)[C@@H]1C [RIF, rifampicin]
M. tuberculosis M6600
  M. tuberculosis M6600, resistant/sensitive class of control drugs: R
M. tuberculosis M3551
  M. tuberculosis M3551, resistant/sensitive class of control drugs: R
M. tuberculosis M9483
  M. tuberculosis M9483, resistant/sensitive class of control drugs: R
